Legend:
[1] = target: T1, CRTH2 Receptor (Homo sapiens, UniProt Q9Y5Y4); assay: Radioligand binding assay, [3H]PGD2, CHO/CRTH2 cell membranes; conditions: [3H]PGD2 displacement, membranes of CHO cells transfected with CRTH2
T1 construct: expressed in transfected cells; host or cells: Chinese Hamster Ovary (CHO) cells, membranes
T1 sequence (Q9Y5Y4 1-395): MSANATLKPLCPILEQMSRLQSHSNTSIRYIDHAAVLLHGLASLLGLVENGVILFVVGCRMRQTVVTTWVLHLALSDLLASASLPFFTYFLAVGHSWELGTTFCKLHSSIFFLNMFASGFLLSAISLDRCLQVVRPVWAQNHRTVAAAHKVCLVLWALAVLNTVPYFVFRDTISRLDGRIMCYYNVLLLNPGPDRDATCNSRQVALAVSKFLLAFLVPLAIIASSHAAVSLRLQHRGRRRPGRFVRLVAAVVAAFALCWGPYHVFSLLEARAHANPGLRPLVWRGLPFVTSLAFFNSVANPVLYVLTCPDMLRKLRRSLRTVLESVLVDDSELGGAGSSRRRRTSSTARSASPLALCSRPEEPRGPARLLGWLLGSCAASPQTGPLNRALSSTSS
Description: (§1) Chinese Hamster Ovary cells were transfected with CRTH2 or DP receptors (CHO/CRTH2 and CHO/DP) and were maintained in culture in a humidified atmosphere at 37° C. (5% CO2) in Minimum Essential Medium (MEM) supplemented with 10% foetal bovine serum, 2 mM glutamine, and 1 mg ml^−1 active G418. The cells were passaged every 2-3 days. For radioligand binding assay, cells were prepared in triple-layer flasks or in 175 cm^2 square flasks (for membrane preparation). For calcium mobilisation assay, cells were grown in a 96 well plate 24h prior to the assay at a density of 80,000 cells per well.
(§2) Membranes were prepared either from CHO/CRTH2 and CHO/DP cells, or from platelets (as a source of TP receptors). CHO cells grown to confluency were washed with PBS and detached using a Versene solution (15 ml per flask). When the cells were grown in 175 cm^2 square flask, they were collected by scrapping in PBS. The cell suspensions were centrifuged (1,700 rpm, 10 min, 4° C.) and resuspended in 15 ml of buffer (1×HBSS, supplemented with 10 mM HEPES, pH 7.3). Cell suspensions were then homogenised using an Ultra Turrax at setting 4-6 for 20 s. The homogenate was centrifuged at 1,700 rpm for 10 min and the supernatant was collected and centrifuged at 20,000 rpm for 1 h at 4° C. The resulting pellet was resuspended in buffer and stored at −80° C. in aliquots of 200-500 μl. The protein concentration was determined by the method of Bradford (1976), using bovine serum albumin as standard. The platelets were washed by centrifugation at 600×g for 10 min and resuspended in ice-cold assay buffer (10 mM Tris-HCl, pH 7.4, 5 mM Glucose, 120 mM NaCl, 10 μM indomethacin) and directly centrifuged at 20,000 rpm for 30 min at 4° C. […]
(§3) [^3H]PGD2 (160 Ci/mmol) binding experiments were performed on membranes prepared as described above. […] The Unifilter plates were dried at room temperature for at least 1 h and the radioactivity retained on the filters was determined on a Beta Trilux counter (PerkinElmer Life Sciences), following addition of 40 μl of Optiphase Hi-Safe 3 (Wallac) liquid scintillation. […]

[2] = target: T2, DP Receptor (Homo sapiens, UniProt Q13258); assay: Radioligand binding assay, [3H]PGD2, CHO/DP cell membranes; conditions: [3H]PGD2 displacement, membranes of CHO cells transfected with DP
T2 construct: expressed in transfected cells; host or cells: Chinese Hamster Ovary (CHO) cells, membranes
T2 sequence (Q13258 1-359): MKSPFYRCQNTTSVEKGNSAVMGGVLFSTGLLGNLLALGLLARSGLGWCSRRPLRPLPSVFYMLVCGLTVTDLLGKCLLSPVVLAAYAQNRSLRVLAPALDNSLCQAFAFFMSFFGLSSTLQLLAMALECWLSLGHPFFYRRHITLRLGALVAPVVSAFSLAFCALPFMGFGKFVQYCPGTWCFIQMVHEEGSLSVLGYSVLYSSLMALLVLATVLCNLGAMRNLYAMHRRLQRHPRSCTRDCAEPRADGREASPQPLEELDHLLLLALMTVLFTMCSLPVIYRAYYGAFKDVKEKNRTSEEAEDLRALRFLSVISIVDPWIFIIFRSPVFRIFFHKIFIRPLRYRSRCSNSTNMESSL
Description: as §1, §2, §3

Row | Ki [1] | Ki [2] | Structure (SMILES)
1 | 0.2 nM | 1800 nM | Cc1ccc(S(=O)(=O)n2cccc2Cc2c(C)n(CC(=O)O)c3ccc(F)cc23)cc1 [Compound 2, {5-Fluoro-2-methyl-3-[1-(toluene-4-sulfonyl)-1H-pyrrol-2-ylmethyl]-indol-1-yl}-acetic acid]
2 | 1 nM | 9200 nM | Cc1c(Cc2cccn2S(=O)(=O)c2ccccc2)c2cc(F)ccc2n1CC(=O)O [Compound 1, [3-(1-Benzenesulfonyl-1H-pyrrol-2-ylmethyl)-5-fluoro-2-methyl-indol-1-yl]-acetic acid]
3 | 2 nM | 8000 nM | Cc1c(Cc2cccn2S(=O)(=O)c2ccc(F)cc2F)c2cc(F)ccc2n1CC(=O)O [Compound 3, {3-[1-(2,4-Difluoro-benzenesulfonyl)-1H-pyrrol-2-ylmethyl]-5-fluoro-2-methyl-indol-1-yl}-acetic acid]

— US8044088B2, “1-acetic acid-indole derivatives with PGD2 antagonist activity” (Oxagen Limited, priority 2005, dated 2011)
